Experimental data: patent US20110178104A1, “Anti-Heparin Compounds” (POLYMEDIX INC., priority 2010, published 2011)

Legend:
tinzaparin = assay: FXa amidolytic assay (Example 10), tinzaparin; details: read-out: Tinzap FXa EC50; tinzaparin 0.1 ug/ml; human antithrombin, bovine Factor Xa
enoxaparin = assay: FXa amidolytic assay (Example 10), enoxaparin; details: read-out: Enox FXa EC50; enoxaparin 0.1 ug/ml; human antithrombin, bovine Factor Xa
fondaparinux = assay: FXa amidolytic assay (Example 10), fondaparinux; details: read-out: Fondap FXa EC50; fondaparinux 0.02 μg/mL; human antithrombin, bovine Factor Xa
Unfractionated heparin = assay: aPTT clotting assay, UFH 0.4 U/mL in plasma (Example 10); format: biochemical; details: unfractionated heparin 0.4 U/mL in plasma; aPTT clotting
Method: aPTT clotting Assay: Unfractionated heparin was mixed with plasma at a final concentration of 0.4 U/mL (or concentration which increases aPTT time to between 120 and 300 seconds). […] The ACL Elite Hemostasis analyzer (Beckman Coulter™) was used to add aPTT reagent (HemosIL SynthASil) to supplemented plasma. Clotting was initiated by addition of CaCl2 and time to clot was recorded.

Row | EC50 (tinzaparin) [nM] | EC50 (enoxaparin) [nM] | EC50 (fondaparinux) [nM] | EC50 (Unfractionated heparin) [nM] | Structure (SMILES)
1 | > 5000 | > 5000 | > 10000 | > 10000 | COc1cc(OC)c(C(=O)N[C@H]2CC[C@@H](NC(=O)c3cc(C(=O)N[C@H]4CC[C@@H](N=C(N(C)C)N(C)C)CC4)c(OC)cc3OC)CC2)cc1C(=O)NCCCN [Compound 405]
2 | 115 | 173 | 955 | 2590 | COc1cc(OC)c(C(=O)N[C@H]2CC[C@H](NC(=O)c3cc(C(=O)NCCN(C)C)c(OCCCCCNC(=N)N)cc3OCCCCCNC(=N)N)CC2)cc1C(=O)N[C@H]1CC[C@@H](NC(=O)c2cc(C(=O)NCCN(C)C)c(OCCCCCNC(=N)N)cc2OCCCCCNC(=N)N)CC1 [Compound 222]
3 | 313 | 543 | 6990 | 1670 | COc1ccc(NC(=O)[C@H](CCCCN)NC(=O)c2cc(NC(=O)[C@@H](N)CCCCN)ccc2OC)cc1C(=O)N[C@@H](CCCCN)C(=O)Nc1ccc(OC)c(C(=O)N[C@@H](CCCCN)C(=O)Nc2ccc(OC)c(C(=O)N[C@H](C(=O)O)C(C)C)c2)c1 [Compound 267]
4 | 108 | 133 | 508 | 1760 | COc1ccc(NC(=O)[C@H](CCCNC(=N)N)NC(=O)c2cc(NC(=O)[C@H](CCCNC(=N)N)NC(=O)c3cc(NC(=O)[C@H](CCCNC(=N)N)NC(=O)c4cc(NC(=O)[C@@H](N)CCCNC(=N)N)ccc4OCC(=O)O)ccc3OC)ccc2OC)cc1C(N)=O [Compound 289]
5 | 240 | 541 | 7690 | 3090 | COc1ccc(NC(=O)[C@H](CCCCN)NC(=O)c2cc(NC(=O)[C@H](CCCCN)NC(=O)c3cc(NC(=O)[C@H](CCCCN)NC(=O)c4cc(NC(=O)[C@@H](N)CCCCN)ccc4OCC(=O)O)ccc3OC)ccc2OC)cc1C(N)=O [Compound 272]
6 | 151 | 169 | 799 | 2150 | COc1ccc(NC(=O)[C@H](CCCNC(=N)N)NC(=O)c2cc(NC(=O)[C@H](CCCNC(=N)N)NC(=O)c3cc(NC(=O)[C@H](CCCNC(=N)N)NC(=O)c4cc(NC(=O)[C@@H](N)CCCNC(=N)N)ccc4OC)ccc3OC)ccc2OC)cc1C(=O)NCCC(=O)O [Compound 285]
7 | > 5000 | > 5000 | > 10000 | > 10000 | COc1cc(OC)c(C(=O)N[C@H]2CC[C@H](NC(=O)c3cc(C(=O)NCCCN)c(OC)cc3OC)CC2)cc1C(=O)O [Compound 407]
8 | 248 | 316 | 802 | 4090 | COc1ccc(NC(=O)[C@H](CCCNC(=N)N)NC(=O)c2cc(NC(=O)[C@H](CCCNC(=N)N)NC(=O)c3cc(NC(=O)[C@H](CCCNC(=N)N)NC(=O)c4cc(NC(=O)[C@H](C)NC(=O)CCCCNC(=N)N)ccc4OC)ccc3OC)ccc2OC)cc1C(N)=O [Compound 223]
9 | 62 | 88 | 502 | 429 | COc1cc(OC)c(C(=O)N[C@H]2CC[C@@H](NC(=O)c3cc(C(=O)NC4CCNCC4)c(OCCCCCN)cc3OCCCCCN)CC2)cc1C(=O)N[C@H]1CC[C@@H](NC(=O)c2cc(C(=O)NC3CCNCC3)c(OCCCCCN)cc2OCCCCCN)CC1 [Compound 425]
10 | 349 | 533 | 4050 | 1250 | COc1ccc(NC(=O)[C@H](CCCCN)NC(=O)c2cc(NC(=O)[C@H](CCCCN)NC(=O)c3cc(NC(=O)[C@H](CCCCN)NC(=O)c4cc(NC(=O)[C@@H](N)CCCCN)ccc4OC)ccc3OC)ccc2OCC(=O)O)cc1C(N)=O [Compound 270]
11 | > 5000 | > 5000 | > 10000 | > 10000 | COc1cc(OC)c(C(=O)N[C@H]2CC[C@@H](NC(=O)c3cc(C(=O)N4CCC(CN)CC4)c(OC)cc3OC)CC2)cc1C(=O)N[C@H]1CC[C@@H](N=C(N(C)C)N(C)C)CC1 [Compound 416]
12 | 2760 | 4650 | 14800 | 7060 | COc1cc(OC)c(C(=O)N[C@H]2CC[C@@H](NC(=O)c3cc(C(N)=O)c(OCCCCCN)cc3OCCCCCN)CC2)cc1C(=O)N[C@H]1CC[C@@H](N=C(N(C)C)N(C)C)CC1 [Compound 413]
13 | 97 | 93 | 448 | 1640 | COc1ccc(NC(=O)[C@@H](CCCNC(=N)N)NC(=O)c2cc(NC(=O)[C@@H](CCCNC(N)=O)NC(=O)c3cc(NC(=O)[C@@H](CCCNC(=N)N)NC(=O)c4cc(NC(=O)[C@H](N)CCCNC(=N)N)ccc4OC)ccc3OC)ccc2OC)cc1C(N)=O [Compound 254]
14 | > 5000 | > 5000 | > 10000 | > 10000 | COc1cc(OC)c(C(=O)NCCCNC(=O)c2cc(C(=O)NCCCN)c(OC)cc2OC)cc1C(=O)O [Compound 409]
15 | > 5000 | > 5000 | > 10000 | > 10000 | COc1cc(OC)c(C(=O)N[C@H]2CC[C@@H](NC(=O)c3cc(C(=O)N[C@H]4CC[C@@H](N=C(N(C)C)N(C)C)CC4)c(OC)cc3OC)CC2)cc1C(=O)NC1CCNCC1 [Compound 418]
16 | 792 | 1020 | 4450 | 7230 | COc1ccc(NC(=O)[C@H](CCCNC(=N)N)NC(=O)c2cc(NC(=O)[C@H](CCCNC(=N)N)NC(=O)c3cc(NC(=O)[C@H](C)NC(=O)CCCCNC(=N)N)ccc3OC)ccc2OC)cc1C(N)=O [Compound 224]
17 | 581 | 839 | 1860 | 5340 | COc1ccc(NC(=O)[C@H](CCCCN)NC(=O)c2cc(NC(=O)[C@H](CCCCN)NC(=O)c3cc(NC(=O)[C@H](CCCCN)NC(=O)c4c[nH]c5ccccc45)ccc3OC)ccc2OC)cc1C(N)=O [Compound 238]
18 | 1350 | 3140 | > 10000 | 2570 | COc1ccc(NC(=O)[C@H](CCCCN)NC(=O)c2cc(NC(=O)[C@H](CCCCN)NC(=O)c3cc(NC(=O)[C@H](CCCCN)NC(=O)c4cnc(N)s4)ccc3OC)ccc2OC)cc1C(N)=O [Compound 247]
19 | 158 | 208 | 1840 | 2080 | COc1ccc(NC(=O)[C@H](CCCCN)NC(=O)c2cc(NC(=O)[C@H](CCCCN)NC(=O)c3cc(NC(=O)[C@H](CCCCN)NC(=O)c4cc(C(=O)NCCCCCN)c(OC)cc4OC)ccc3OC)ccc2OC)cc1C(N)=O [Compound 248]
20 | 134 | 154 | 775 | 1950 | COc1ccc(NC(=O)[C@@H](CCCNC(=N)N)NC(=O)c2cc(NC(=O)[C@@H](CCCNC(=N)N)NC(=O)c3cc(NC(=O)[C@@H](CCCNC(=N)N)NC(=O)c4cc(NC(=O)[C@H](N)CCCNC(=N)N)ccc4OC)ccc3OC)ccc2OC)cc1C(=O)NCCC(=O)O [Compound 279]
21 | 472 | 1070 | > 10000 | 1660 | COc1ccc(NC(=O)[C@H](CCCCN)NC(=O)c2cc(NC(=O)[C@@H](N)CCCCN)ccc2OC)cc1C(=O)N[C@@H](CCCCN)C(=O)Nc1ccc(OC)c(C(=O)N[C@@H](CCCCN)C(=O)Nc2ccc(SC)c(C(N)=O)c2)c1 [Compound 253]
22 | 433 | 497 | 10700 | > 10000 | CSc1ccc(NC(=O)[C@H](CCCNC(=N)N)NC(=O)c2cc(NC(=O)[C@H](CCCNC(=N)N)NC(=O)c3cc(NC(=O)[C@H](CCCNC(=N)N)NC(=O)c4cc(NC(=O)[C@@H](N)CCCNC(=N)N)ccc4SC)ccc3SC)ccc2SC)cc1C(N)=O [Compound 235]
23 | 244 | 392 | 2060 | 680 | COc1ccc(NC(=O)[C@H](CCCCN)NC(=O)c2cc(NC(=O)[C@H](CCCCN)NC(=O)c3cc(NC(=O)[C@H](CCCCN)NC(=O)c4cc(NC(=O)[C@H](CCCCN)NC(=O)CCCC(=O)O)ccc4OC)ccc3OC)ccc2OC)cc1C(N)=O [Compound 344]
24 | 104 | 118 | 526 | 1900 | COc1ccc(NC(=O)[C@H](CCCNC(=N)N)NC(=O)c2cc(NC(=O)[C@H](CCCNC(=N)N)NC(=O)c3cc(NC(=O)[C@@H](N)CCCNC(=N)N)ccc3OC)ccc2OC)cc1C(=O)N[C@@H](CCCNC(=N)N)C(=O)Nc1ccc(OCC(=O)O)c(C(N)=O)c1 [Compound 286]
25 | 213 | 344 | 5570 | 1260 | COc1ccc(NC(=O)[C@H](CCCCN)NC(=O)c2cc(NC(=O)[C@H](CCCCN)NC(=O)c3cc(NC(=O)[C@H](CCCCN)NC(=O)c4cc(NC(=O)[C@@H](N)CCCCN)ccc4OC)ccc3OC)ccc2OC)cc1C(=O)N[C@@H](C)C(=O)O [Compound 262]
26 | 135 | 219 | 3120 | 1640 | COc1ccc(NC(=O)[C@H](CCCCN)NC(=O)c2cc(NC(=O)[C@H](CCCCN)NC(=O)c3cc(NC(=O)[C@H](CCCCN)NC(=O)c4cc(NC(=O)[C@@H](N)CCCCN)ccc4OC)ccc3OCC(=O)O)ccc2OC)cc1C(N)=O [Compound 271]
27 | 114 | 121 | 424 | 2000 | COc1ccc(NC(=O)[C@@H](CCCNC(=N)N)NC(=O)c2cc(NC(=O)[C@@H](CCCNC(=N)N)NC(=O)c3cc(NC(=O)[C@@H](CCCNC(=N)N)NC(=O)c4cc(NC(=O)[C@H](N)CCCNC(=N)N)ccc4OC)ccc3OCC(=O)O)ccc2OC)cc1C(N)=O [Compound 282]

Row | Structure (SMILES) | EC50 (tinzaparin) [nM] | EC50 (enoxaparin) [nM] | EC50 (fondaparinux) [nM] | EC50 (Unfractionated heparin) [nM]
28 | COc1ccc(NC(=O)[C@H](CCCCN)NC(=O)c2cc(NC(=O)[C@H](CCCCN)NC(=O)c3cc(NC(=O)[C@H](CCCCN)NC(=O)c4ccc(NC(=O)[C@@H](N)CCCCN)cc4)ccc3OC)ccc2OC)cc1C(N)=O [Compound 241] | 167 | 431 | > 10000 | 5440
